{"source": "ChEMBL document CHEMBL5257035", "about": "“Nucleoside Derived Antibiotics to Fight Microbial Drug Resistance: New Utilities for an Established Class of Drugs?” (J Med Chem, 2016)", "key": {"[1]": {"tested_on": "Aspergillus niger", "experiment": "Antifungal activity against Aspergillus niger MTCC 282 assessed as reduction in microbial growth measured after 48 hrs by broth dilution method", "format": "functional"}, "[2]": {"tested_on": "Cryptococcus neoformans", "experiment": "Antifungal activity against Cryptococcus neoformans assessed as reduction in fungal growth", "format": "functional"}, "[3]": {"tested_on": "Coccidioides immitis", "experiment": "Antifungal activity against Coccidioides immitis assessed as reduction in fungal growth", "format": "functional"}, "[4]": {"tested_on": "Cryptococcus neoformans", "experiment": "Antifungal activity against Cryptococcus neoformans assessed as fungal growth inhibition", "format": "functional"}, "[5]": {"tested_on": "Fusarium oxysporum", "experiment": "Antifungal activity against Fusarium oxysporum assessed as inhibition of fungal growth", "format": "functional"}, "[6]": {"tested_on": "Candida albicans", "experiment": "Antifungal activity against Candida albicans assessed as inhibition of fungal growth", "format": "functional"}, "[7]": {"experiment": "Inhibition of Bacterial MraY", "design": "species or system Bacteria"}, "[8]": {"tested_on": "Staphylococcus aureus", "experiment": "Antimicrobial activity against methicillin-resistant Staphylococcus aureus assessed as reduction in microbial growth by broth microdilution method", "format": "functional"}, "[9]": {"tested_on": "Enterococcus faecalis", "experiment": "Antimicrobial activity against Enterococcus faecalis 10785 assessed as reduction in microbial growth by broth microdilution method", "format": "functional"}, "[10]": {"experiment": "Cytotoxicity against human HepG2 cells assessed as reduction in cell viability incubated for 72 hrs by MTT assay", "format": "toxicity, cell-based"}, "[11]": {"target": "T1, Phospho-N-acetylmuramoyl-pentapeptide-transferase (Escherichia coli, UniProt E2QF15)", "T1 sequence (E2QF15 whole entry)": "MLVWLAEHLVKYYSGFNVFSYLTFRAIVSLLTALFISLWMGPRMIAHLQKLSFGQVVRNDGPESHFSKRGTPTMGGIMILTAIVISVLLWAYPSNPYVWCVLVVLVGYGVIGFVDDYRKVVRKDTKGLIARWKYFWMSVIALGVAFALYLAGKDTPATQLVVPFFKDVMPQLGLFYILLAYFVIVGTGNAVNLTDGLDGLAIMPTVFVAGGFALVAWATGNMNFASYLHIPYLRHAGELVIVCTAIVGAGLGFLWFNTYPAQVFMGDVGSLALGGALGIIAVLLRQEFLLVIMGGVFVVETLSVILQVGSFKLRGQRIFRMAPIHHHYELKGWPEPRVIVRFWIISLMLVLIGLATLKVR", "experiment": "Inhibition of MraY in Escherichia coli"}, "[12]": {"tested_on": "Staphylococcus aureus", "experiment": "Antibacterial activity against methicillin-resistant Staphylococcus aureus assessed as reduction in bacterial growth by broth dilution method", "format": "functional"}, "[13]": {"experiment": "Inhibition of Candida albicans chitin synthase"}, "[14]": {"tested_on": "Candida albicans", "experiment": "Inhibition of Candida albicans chitin synthase at 1 uM relative to control"}, "[15]": {"tested_on": "Aspergillus fumigatus", "experiment": "Antifungal activity against Aspergillus fumigatus assessed as inhibition of fungal growth", "format": "functional"}, "[16]": {"tested_on": "Aspergillus fumigatus", "experiment": "Antifungal activity against Aspergillus fumigatus assessed as fungal growth inhibition", "format": "functional"}, "[17]": {"tested_on": "Cryptococcus neoformans", "experiment": "Antifungal activity against Cryptococcus neoformans assessed as fungal growth inhibition measured after 24 hrs by micro broth dilution method", "format": "functional"}, "[18]": {"tested_on": "Candida albicans", "experiment": "Antifungal activity against Candida albicans assessed as fungal growth inhibition measured after 24 hrs by micro broth dilution method", "format": "functional"}, "[19]": {"tested_on": "Pseudomonas aeruginosa", "experiment": "Antimicrobial activity against Pseudomonas aeruginosa M35 assessed as reduction in microbial growth", "format": "functional"}, "[20]": {"tested_on": "Pseudomonas aeruginosa", "experiment": "Antibacterial activity against Pseudomonas aeruginosa ATCC 27853 assessed as bacterial growth inhibition at 32 ug/ml measured after 16 hrs by broth microdilution method", "format": "functional", "conditions": "dose 32 µg/ml"}, "[21]": {"experiment": "Inhibition of Candida albicans SC5314 chitin synthase using UDP-GlcNAc as substrate incubated for 1 hr"}}, "note": "pIC50: −log10 of the molar value."}
{"compound": "CC(C)C[C@H](N)C(=O)N[C@H](C(=O)O)[C@@H]1C[C@@H](O)[C@@H](O)[C@H](n2ccc(=O)[nH]c2=O)O1", "values": [{"measurement": "MIC", "setting": "[1]", "value": 0.03, "unit": "mg/L"}, {"measurement": "MIC", "setting": "[2]", "value": 0.25, "unit": "mg/L"}, {"measurement": "MIC", "setting": "[3]", "value": 0.25, "unit": "mg/L"}]}
{"compound": "CC1(C)O[C@@H]2[C@H](O1)[C@@H](Cn1cc(COc3ccc(Cl)cc3)nn1)O[C@H]2n1ccc(=O)[nH]c1=O", "values": [{"measurement": "MIC", "setting": "[4]", "value": 8, "unit": "mg/L"}, {"measurement": "MIC", "setting": "[5]", "value": 32, "unit": "mg/L"}, {"measurement": "MIC", "setting": "[6]", "value": 24, "unit": "mg/L"}]}
{"compound": "CCCCCCCCCCCCCCC[C@@H](NC(=O)[C@@H](NC(=O)N[C@H](C(=O)O)C(C)C)[C@@H]1CCNC(=N)N1)C(=O)NCCCNC(C(=O)O)[C@H](O[C@@H]1O[C@H](CN)[C@@H](O)[C@H]1O)[C@H]1O[C@@H](n2ccc(=O)[nH]c2=O)[C@H](O)[C@@H]1O", "note": "(some centres undefined)", "values": [{"measurement": "pIC50", "setting": "[7]", "value": 6.13}, {"measurement": "MIC", "setting": "[8]", "value": 2, "unit": "mg/L"}, {"measurement": "MIC", "setting": "[9]", "value": 0.25, "unit": "mg/L"}, {"measurement": "IC50 at 72 h", "setting": "[10]", "value": "> 100", "unit": "mg/L"}]}
{"compound": "NC[C@H]1O[C@@H](O[C@@H](Cn2cc(CCCCCCCCOc3ccc(C(=O)c4ccccc4)cc3)nn2)[C@H]2O[C@@H](n3ccc(=O)[nH]c3=O)[C@H](O)[C@@H]2O)[C@H](O)[C@@H]1O", "values": [{"measurement": "pIC50", "setting": "[11]", "value": 5.10}, {"measurement": "MIC", "setting": "[12]", "value": 8, "unit": "mg/L"}]}
{"compound": "O=C(NC[C@@H]1O[C@H](n2ccc(=O)[nH]c2=O)[C@@H](O)[C@H]1O)OCCOCCOC(=O)NC[C@H]1O[C@@H](n2ccc(=O)[nH]c2=O)[C@H](O)[C@@H]1O", "values": [{"measurement": "pIC50", "setting": "[13]", "value": 4.93}, {"measurement": "inhibition", "setting": "[14]", "value": 45, "unit": "%"}]}
{"compound": "O=C(OC[C@H]1O[C@@H](n2ccc(=O)[nH]c2=O)[C@H](O)[C@@H]1O)c1cc(O)ccc1O", "values": [{"measurement": "MIC", "setting": "[6]", "value": 1000, "unit": "mg/L"}, {"measurement": "MIC", "setting": "[15]", "value": 1000, "unit": "mg/L"}]}
{"compound": "CC(C)[C@H](O)[C@H](N)C(=O)NCCCN[C@H](C(=O)OC(C)(C)C)[C@@H](O)[C@H]1O[C@@H](n2ccc(=O)[nH]c2=O)[C@H](O[Si](C)(C)C(C)(C)C)[C@@H]1O[Si](C)(C)C(C)(C)C", "values": [{"measurement": "MIC", "setting": "[8]", "value": 1, "unit": "mg/L"}, {"measurement": "MIC", "setting": "[9]", "value": 1, "unit": "mg/L"}]}
{"compound": "Nc1ncnc2c1ncn2[C@@H]1O[C@H](CSCCC(=O)O)[C@@H](O)[C@H]1O", "values": [{"measurement": "MIC", "setting": "[16]", "value": 0.19, "unit": "µM"}, {"measurement": "MIC", "setting": "[17]", "value": 0.19, "unit": "µM"}, {"measurement": "MIC", "setting": "[18]", "value": 0.19, "unit": "µM"}]}
{"compound": "CSCC[C@H](NC(=O)N[C@@H](Cc1cccc(O)c1)C(=O)O)C(=O)NC(CN(C)C(=O)C1Cc2ccc(O)cc2CN1)C(=O)N/C=C1/C[C@@H](O)[C@H](n2ccc(=O)[nH]c2=O)O1", "note": "(some centres undefined)", "values": [{"measurement": "MIC", "setting": "[19]", "value": 6.25, "unit": "mg/L"}]}
{"compound": "CSCC[C@H](NC(=O)N[C@@H](Cc1cccc(O)c1)C(=O)O)C(=O)NC(CN(C)C(=O)C1Cc2ccc(O)cc2C(C)N1)C(=O)N/C=C1/C[C@@H](O)[C@H](n2ccc(=O)[nH]c2=O)O1", "note": "(some centres undefined)", "values": [{"measurement": "MIC", "setting": "[19]", "value": 6.25, "unit": "mg/L"}]}
{"compound": "CCCCCCCCCCCCCCCCC(=O)[C@H](NCCCC(=O)NCCCCNC(=N)N)[C@H](O[C@@H]1O[C@H](CN)[C@@H](O)[C@H]1O)[C@H]1O[C@@H](n2ccc(=O)[nH]c2=O)[C@H](O)[C@@H]1O", "values": [{"measurement": "MIC", "setting": "[20]", "value": 4, "unit": "mg/L"}]}
{"compound": "CSCC[C@H](NC(=O)N[C@@H](Cc1cccc(O)c1)C(=O)O)C(=O)NC(CN(C)C(=O)C1Cc2ccc(O)cc2C(C)N1)C(=O)N/C=C1/C[C@@H](O)[C@H](N2CCC(=O)NC2=O)O1", "note": "(some centres undefined)", "values": [{"measurement": "MIC", "setting": "[19]", "value": 6.25, "unit": "mg/L"}]}
{"compound": "CCCCCCCCCCCCCCCCC(=O)NC(CCCCCCCCCCCCCCC)C(=O)[C@H](NCCCC(=O)NCCCCNC(=N)N)[C@H](O[C@@H]1O[C@H](CN)[C@@H](O)[C@H]1O)[C@H]1O[C@@H](n2ccc(=O)[nH]c2=O)[C@H](O)[C@@H]1O", "note": "(some centres undefined)", "values": [{"measurement": "MIC", "setting": "[20]", "value": 4, "unit": "mg/L"}]}
{"compound": "NC[C@H]1O[C@@H](O[C@@H](c2cn(CCCCCCCCCCOc3ccc(C(=O)c4ccccc4)cc3)nn2)[C@H]2O[C@@H](n3ccc(=O)[nH]c3=O)[C@H](O)[C@@H]2O)[C@H](O)[C@@H]1O", "values": [{"measurement": "MIC", "setting": "[12]", "value": 8, "unit": "mg/L"}]}
{"compound": "Nc1cccc2c1ncn2[C@@H]1O[C@H](CSCCC(=O)O)[C@@H](O)[C@H]1O", "values": [{"measurement": "MIC", "setting": "[16]", "value": 0.19, "unit": "µM"}, {"measurement": "MIC", "setting": "[17]", "value": 0.19, "unit": "µM"}, {"measurement": "MIC", "setting": "[18]", "value": 0.19, "unit": "µM"}]}
{"compound": "N[C@@H](Cc1cc2ccccc2c2ccccc12)C(=O)N[C@@H](C(=O)O)[C@H]1O[C@@H](n2ccc(=O)[nH]c2=O)[C@H](O)[C@@H]1O", "values": [{"measurement": "IC50", "setting": "[21]", "value": 0.31, "unit": "mg/L"}]}
{"compound": "CCC(C)CCCCCCC/C(C)=C/C(C)=C/C(=O)NCC(=O)N[C@H]1[C@H](OP(=O)(O)OC(C(=O)O)C(C[C@H]2O[C@@H](n3ccc(=O)[nH]c3=O)[C@H](O)[C@@H]2O)O[C@@H]2O[C@H](CO)[C@@H](O)[C@H](O)[C@H]2O)O[C@H](CO)[C@@H](O)[C@@H]1O", "note": "(some centres undefined)", "values": [{"measurement": "pIC50", "setting": "[7]", "value": 5.96}, {"measurement": "MIC", "setting": "[8]", "value": 100, "unit": "mg/L"}, {"measurement": "MIC", "setting": "[9]", "value": 50, "unit": "mg/L"}]}
